Results on 23 compounds are retold here after patent US8012998B2, “Pyrrolidine aryl-ether as NK-3 receptor antagonists” (Hoffmann—LA Roche Inc., priority 2007, dated 2011).

The target of one assay is T1, human NK3 receptor (Homo sapiens, UniProt P29371).
T1 construct: expressed in transfected cells; host or cells: HEK293 cells (transient expression), membrane preparation
T1 sequence (P29371 1-465): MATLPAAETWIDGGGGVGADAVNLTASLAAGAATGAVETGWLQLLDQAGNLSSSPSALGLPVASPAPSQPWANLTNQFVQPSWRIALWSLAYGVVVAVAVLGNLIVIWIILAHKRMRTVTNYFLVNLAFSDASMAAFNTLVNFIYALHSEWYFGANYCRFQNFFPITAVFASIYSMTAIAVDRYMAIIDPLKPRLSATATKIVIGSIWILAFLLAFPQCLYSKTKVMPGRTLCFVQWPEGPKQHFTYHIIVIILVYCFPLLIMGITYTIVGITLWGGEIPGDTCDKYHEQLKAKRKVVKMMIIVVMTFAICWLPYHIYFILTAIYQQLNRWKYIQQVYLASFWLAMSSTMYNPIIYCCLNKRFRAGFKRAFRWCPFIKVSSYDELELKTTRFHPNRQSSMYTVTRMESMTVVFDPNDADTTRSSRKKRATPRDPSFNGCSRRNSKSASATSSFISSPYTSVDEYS
As to the kind of experiment: [3H]SR142801 competition binding assay (hNK3 receptor binding). Conditions: [3H]SR142801 radioligand; membranes from HEK293 cells transiently expressing recombinant human NK3 receptor; Ki by Cheng-Prussoff; read-out: KiNK3 h. Summed up: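 Competition binding with [3H]SR142801 on membranes of HEK293 cells transiently expressing human NK3, 5 μg protein/well, in Tris-HCl/MnCl2/phosphoramidon/BSA buffer pH 7.4. Nonspecific binding defined with 10 μM SB222200; filtration then scintillation counting. IC50 from Hill fit was converted to Ki by Cheng-Prusoff; duplicate, mean ± SEM.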
With `Cc1ncc(C(=O)N2CC(C(C)Oc3ccc(Cl)cn3)[C@H](c3ccc(Cl)c(Cl)c3)C2)cn1` (stereo in doubt) [Example 41, [(3S,4R)-3-[(R)-1-(5-Chloro-pyridin-2-yloxy)-ethyl]-4-(3,4-dichloro-phenyl)-pyrrolidin-1-yl]-(2-methyl-pyrimidin-5-yl)-methanone], the Ki came out at 66.4 nM. On the same count and under the same terms, for `C[C@@H](Oc1ccc(Cl)cn1)[C@@H]1CN(C(=O)c2ccc(CCN(C)C)cc2)C[C@H]1c1ccc(Cl)c(Cl)c1` [Example 44, [(3S,4R)-3-[(R)-1-(5-Chloro-pyridin-2-yloxy)-ethyl]-4-(3,4-dichloro-phenyl)-pyrrolidin-1-yl]-[4-(2-dimethylamino-ethyl)-phenyl]-methanone] the value was 11.8 nM. For `C[C@@H](Oc1ccc(Cl)cn1)[C@@H]1CN(C(=O)c2cnc(C#N)nc2)C[C@H]1c1ccc(Cl)c(Cl)c1` [Example 50, 5-[(3S,4R)-3-[(R)-1-(5-Chloro-pyridin-2-yloxy)-ethyl]-4-(3,4-dichloro-phenyl)-pyrrolidine-1-carbonyl]-pyrimidine-2-carbonitrile], the Ki was 4.6 nM.

In the case of `C[C@H](Oc1ccc(C#N)cn1)[C@H]1CN(C(=O)c2cnc(C3CC3)nc2)C[C@@H]1c1ccc(Cl)c(Cl)c1` [Example 84, 6-{(S)-1[-(3R,4S)-1-(2-Cyclopropyl-pyrimidine-5-carbonyl)-4-(3,4-dichloro-phenyl)-pyrrolidin-3-yl]-ethoxy}-nicotinonitrile], the Ki is 22 nM. Same read-out and setting: to `Cc1ncc(C(=O)N2C[C@H]([C@H](C)Oc3ccc(Cl)cn3)[C@@H](c3ccc(Cl)c(F)c3)C2)cn1` [Example 90, {(3S,4R)-3-(4-Chloro-3-fluoro-phenyl)-4-[(S)-1-(5-chloro-pyridin-2-yloxy)-ethyl]-pyrrolidin-1-yl}-(2-methyl-pyrimidin-5-yl)-methanone] belongs 11 nM; to `Cc1ncc(C(=O)N2C[C@H]([C@H](C)Oc3ccc(C#N)cn3)[C@@H](c3ccc(Cl)c(F)c3)C2)cn1` [Example 91, 6-{(S)-1-[(3R,4S)-4-(4-Chloro-3-fluoro-phenyl)-1-(2-methyl-pyrimidine-5-carbonyl)-pyrrolidin-3-yl]-ethoxy}-nicotinonitrile], 18.4 nM. Same read-out and setting: to `Cc1ncc(C(=O)N2C[C@H]([C@H](C)Oc3ccc(Cl)cn3)[C@@H](c3ccc(F)c(Cl)c3)C2)cn1` [Example 101, {(3S,4R)-3-(3-Chloro-4-fluoro-phenyl)-4-[(S)-1-(5-chloro-pyridin-2-yloxy)-ethyl]-pyrrolidin-1-yl}-(2-methyl-pyrimidin-5-yl)-methanone] belongs 46 nM; to `Cc1ncc(C(=O)N2C[C@H]([C@H](C)Oc3ccc(C#N)cn3)[C@@H](c3ccc(F)c(Cl)c3)C2)cn1` [Example 102, 6-{(S)-1-[(3R,4S)-4-(3-Chloro-4-fluoro-phenyl)-1-(2-methyl-pyrimidine-5-carbonyl)-pyrrolidin-3-yl]-ethoxy}-nicotinonitrile], 91.4 nM.

For the compound `Cc1ncc(C(=O)N2C[C@H]([C@H](C)Oc3ccc(Cl)cn3)[C@@H](c3ccc(F)c(F)c3)C2)cn1` [Example 103, [(3R,4S)-3-[(S)-1-(5-Chloro-pyridin-2-yloxy)-ethyl]-4-(3,4-difluoro-phenyl)-pyrrolidin-1-yl]-(2-methyl-pyrimidin-5-yl)-methanone], the Ki is 25.7 nM. On to `Cc1cc(C(=O)N2C[C@H]([C@H](C)Oc3ccc(Cl)cn3)[C@@H](c3ccc(F)c(F)c3)C2)cnn1` [Example 104, [(3R,4S)-3-[(S)-1-(5-Chloro-pyridin-2-yloxy)-ethyl]-4-(3,4-difluoro-phenyl)-pyrrolidin-1-yl]-(6-methyl-pyridazin-4-yl)-methanone], for which the Ki turned out to be 4 nM. On to `Cc1cc(C(=O)N2C[C@H]([C@H](C)Oc3ccc(C#N)cn3)[C@@H](c3ccc(F)c(F)c3)C2)cnn1` [Example 106, 6-{(S)-1-[(3R,4S)-4-(3,4-Difluoro-phenyl)-1-(6-methyl-pyridazine-4-carbonyl)-pyrrolidin-3-yl]-ethoxy}-nicotinonitrile], for which the Ki turned out to be 30.9 nM.

For `Cc1cc(C(=O)N2C[C@H]([C@H](C)Oc3ccc(Cl)cn3)[C@@H](c3ccc(Cl)c(F)c3)C2)cnn1` [Example 107, {(3S,4R)-3-(4-Chloro-3-fluoro-phenyl)-4-[(S)-1-(5-chloro-pyridin-2-yloxy)-ethyl]-pyrrolidin-1-yl}-(6-methyl-pyridazin-4-yl)-methanone], the Ki came to 2.6 nM. Same read-out and setting: to `Cc1cc(C(=O)N2C[C@H]([C@H](C)Oc3ccc(Cl)cn3)[C@@H](c3ccc(Cl)cc3)C2)cnn1` [Example 108, {(3S,4R)-3-(4-Chloro-phenyl)-4-[(S)-1-(5-chloro-pyridin-2-yloxy)-ethyl]-pyrrolidin-1-yl}-(6-methyl-pyridazin-4-yl)-methanone] belongs 2.8 nM; to `Cc1ncc(C(=O)N2C[C@H]([C@H](C)Oc3ccc(Cl)cn3)[C@@H](c3ccc(Cl)cc3)C2)cn1` [Example 109, {(3S,4R)-3-(4-Chloro-phenyl)-4-[(S)-1-(5-chloro-pyridin-2-yloxy)-ethyl]-pyrrolidin-1-yl}-(2-methyl-pyrimidin-5-yl)-methanone], 24.1 nM; to `Cc1cc(C(=O)N2C[C@H]([C@H](C)Oc3ccc(C#N)cn3)[C@@H](c3ccc(Cl)cc3)C2)cnn1` [Example 111, 6-{(S)-1-[(3R,4S)-4-(4-Chloro-phenyl)-1-(6-methyl-pyridazine-4-carbonyl)-pyrrolidin-3-yl]-ethoxy}-nicotinonitrile], 3.7 nM. Turning to `Cc1cc(C(=O)N2C[C@H]([C@H](CO)Oc3ccc(Cl)cn3)[C@@H](c3ccc(Cl)c(Cl)c3)C2)cnn1` [Example 112, [(3R,4S)-3-[(R)-1-(5-Chloro-pyridin-2-yloxy)-2-hydroxy-ethyl]-4-(3,4-dichloro-phenyl)-pyrrolidin-1-yl]-(6-methyl-pyridazin-4-yl)-methanone], the Ki came out at 5 nM.

For the compound `Cc1cc(C(=O)N2C[C@H]([C@H](C)Oc3ccc(Cl)cn3)[C@@H](c3ccc(F)c(F)c3)C2)c(C)nn1` [Example 113, [(3R,4S)-3-[(S)-1-(5-Chloro-pyridin-2-yloxy)-ethyl]-4-(3,4-difluoro-phenyl)-pyrrolidin-1-yl]-(3,6-dimethyl-pyridazin-4-yl)-methanone], the Ki worked out at 17.7 nM. Still for that read-out and setting: for `Cc1cc(C(=O)N2C[C@H]([C@H](C)Oc3ccc(C#N)cn3)[C@@H](c3ccc(F)c(F)c3)C2)c(C)nn1` [Example 114, 6-{(S)-1-[(3R,4S)-4-(3,4-Difluoro-phenyl)-1-(3,6-dimethyl-pyridazine-4-carbonyl)-pyrrolidin-3-yl]-ethoxy}-nicotinonitrile] the value was 85.4 nM; for `Cc1cc(C(=O)N2C[C@H]([C@H](C)Oc3ccc(Cl)cn3)[C@@H](c3ccc(F)cc3)C2)cnn1` [Example 115, [(3R,4S)-3-[(S)-1-(5-Chloro-pyridin-2-yloxy)-ethyl]-4-(4-fluoro-phenyl)-pyrrolidin-1-yl]-(6-methyl-pyridazin-4-yl)-methanone], 4 nM; for `Cc1cc(C(=O)N2C[C@H]([C@H](CO)Oc3ccc(Cl)cn3)[C@@H](c3ccc(F)c(F)c3)C2)cnn1` [Example 116, [(3R,4S)-3-[(R)-1-(5-Chloro-pyridin-2-yloxy)-2-hydroxy-ethyl]-4-(3,4-difluoro-phenyl)-pyrrolidin-1-yl]-(6-methyl-pyridazin-4-yl)-methanone], 28 nM.

On to `Cc1cc(C(=O)N2C[C@H]([C@H](C)Oc3ccc(C(F)(F)F)cn3)[C@@H](c3ccc(Cl)cc3)C2)cnn1` [Example 119, {(3S,4R)-3-(4-Chloro-phenyl)-4-[(S)-1-(5-trifluoromethyl-pyridin-2-yloxy)-ethyl]-pyrrolidin-1-yl}-(6-methyl-pyridazin-4-yl)-methanone], for which the Ki was 3 nM. As for “[(3S,4R)-3-[(R)-1-(5-Chloro-pyridin-2-yloxy)-ethyl]-4-(3,4-dichloro-phenyl)-pyrrolidin-1-yl]-(6-methoxy-pyridin-3-yl)-methanone and [(3R,4S)-3-[(S)-1-(5-Chloro-pyridin-2-yloxy)-ethyl]-4-(3,4-dichloro-phenyl)-pyrrolidin-1-yl]-(6-methoxy-pyridin-3-yl)-methanone [Example 21]”, the Ki stood at 5.6 nM.

Test system in the next assay: not given
Assay: not given
Conditions: phase II trial; negative symptoms (depression, anhedonia, social isolation, memory and attention deficits); cited from earlier work.
Turning to `CC(=O)N(C)C1(c2ccccc2)CCN(CCC[C@]2(c3ccc(Cl)c(Cl)c3)CCCN(C(=O)c3ccccc3)C2)CC1` [SR 142,801, Osanetant], the “activity in the treatment of negative symptoms of schizophrenia” value was “inactive”.

Staying with this assay, now noted: phase II trial; positive symptoms (altered behaviour, delusion, hallucinations, extreme emotions, excited motor activity, incoherent speech); cited from earlier work.
In the case of `CC(=O)N(C)C1(c2ccccc2)CCN(CCC[C@]2(c3ccc(Cl)c(Cl)c3)CCCN(C(=O)c3ccccc3)C2)CC1` [SR 142,801, Osanetant], the “activity on positive symptoms of schizophrenia” value was “active”.
